Source: patent US20230203081A1, “LINCOSAMIDE ANTIBIOTICS AND USES THEREOF” (President and Fellows of Harvard College, priority 2020, published 2023)
In brackets after ≈: the same amount, converted by molar mass.

What was measured:
Format in all cases: cell-based
[1] = system: S. pyogenes MMX 946; cErmB; test: MIC (broth microdilution or agar dilution, CLSI); details: Streptococcus pyogenes; S. pyogenes HAV#035, MMX 946; cErmB, mac-resistant; read-out: MIC
Summary of the method: (§1)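 Isolates other than streptococci and anaerobes, which had their own procedures, were grown overnight at 35° C on tryptic soy agar with 5% sheep blood. Suspensions were then diluted to a final inoculum of 5×10^5 CFU/mL in broth microdilution wells.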

[2] = system: S. aureus ATCC 29213; test: MIC (broth microdilution or agar dilution, CLSI); details: Staphylococcus aureus, ATCC29213, S. aureus HAV#001, ATCC 29213, MP-549; read-out: MIC
Summary of the method: as §1

[3] = system: S. aureus ATCC BAA-1707 (MRSA); test: MIC (broth microdilution or agar dilution, CLSI); details: Staphylococcus aureus; S. aureus HAV#016, ATCC BAA-1707; MRSA; read-out: MIC
Summary of the method: as §1

[4] = system: E. faecalis ATCC 29212; test: MIC (broth microdilution or agar dilution, CLSI); details: Enterococcus faecalis, ATCC29212, E. faecalis HAV#005, ATCC 29212; read-out: MIC
Summary of the method: as §1

[5] = system: S. aureus MMX 3035 cErmA; test: MIC (broth microdilution or agar dilution, CLSI); details: Staphylococcus aureus, MMX3035CERMA; S. aureus HAV#031, MMX 3035; cErmA; read-out: MIC
Summary of the method: as §1

[6] = system: S. pneumoniae ATCC 49619; test: MIC (broth microdilution or agar dilution, CLSI); details: Streptococcus pneumoniae, ATCC49619, S. pneumoniae HAV#003, ATCC 49619; read-out: MIC
Summary of the method: as §1

[7] = system: S. pneumoniae MMX 3028 cErmB; test: MIC (broth microdilution or agar dilution, CLSI); details: Streptococcus pneumoniae, MMX3028CERMB; S. pneumoniae HAV#033; MMX 3028, cErmB; read-out: MIC
Summary of the method: as §1

[8] = system: S. pneumoniae ATCC 6303; test: MIC (broth microdilution or agar dilution, CLSI); details: Streptococcus pneumoniae, ATCC6303; S. pneumoniae HAV#351, ATCC 6303; read-out: MIC
Summary of the method: as §1

[9] = system: S. aureus ATCC 700699; test: MIC (broth microdilution or agar dilution, CLSI); details: Staphylococcus aureus; S. aureus HAV#202, ATCC 700699 (VISA); read-out: MIC
Summary of the method: as §1

[10] = system: S. pneumoniae MMX 3031 cMefA; test: MIC (broth microdilution or agar dilution, CLSI); details: Streptococcus pneumoniae, MMX3031CMEFA, S. pneumoniae HAV#034; MMX 3031, cMefA; read-out: MIC
Summary of the method: as §1

[11] = system: S. aureus hVISA; test: MIC (broth microdilution or agar dilution, CLSI); details: Staphylococcus aureus; S. aureus HAV#204, hVISA; read-out: MIC
Summary of the method: as §1

[12] = system: E. faecalis MMX 847; cErmB; test: MIC (broth microdilution or agar dilution, CLSI); details: Enterococcus faecalis; E. faecalis HAV#036, MMX 847; mac-resistant, cErmB; read-out: MIC
Summary of the method: as §1

[13] = system: S. aureus BAA 977 iErmA; test: microbe, parasite or virus in culture; details: Staphylococcus aureus, BAA-977 / MRSA
Summary of the method: as §1

[14] = system: broad panel of different clinical isolates; test: microbe, parasite or virus in culture
Summary of the method: as §1

[15] = system: S. aureus MP-549 msrA; test: microbe, parasite or virus in culture; details: Staphylococcus aureus, MP549MSRA; S. aureus HAV#032, MP-549; MSR(A); read-out: MIC
Summary of the method: as §1

C[C@H]1c2cccc(O)c2C(=O)C2=C(O)[C@]3(O)C(=O)C(C(N)=O)=C(O)[C@@H](N(C)C)[C@@H]3[C@@H](O)[C@@H]21 [Doxycycline]
MIC [1]: 0.125 µg/mL (≈ 0.281 µM)
MIC [2]: 0.25 µg/mL (≈ 0.563 µM)
MIC [3]: 0.25 µg/mL (≈ 0.563 µM)
MIC [4]: 4 µg/mL (≈ 9 µM)
MIC [5]: 0.25 µg/mL (≈ 0.563 µM)
MIC [6]: 0.125 µg/mL (≈ 0.281 µM)
MIC [7]: 1 µg/mL (≈ 2.25 µM)
MIC [8]: 0.125 µg/mL (≈ 0.281 µM)
MIC [9]: 16 µg/mL (≈ 36 µM)
MIC [10]: 0.125 µg/mL (≈ 0.281 µM)
MIC [11]: 16 µg/mL (≈ 36 µM)
MIC [12]: 16 µg/mL (≈ 36 µM)
MIC [13]: 0.25 µg/mL (≈ 0.563 µM)
MIC ([14]; Acinetobacter baumannii, A. baumannii HAV#651, Clinical): 0.125 µg/mL (≈ 0.281 µM)
MIC ([14]; Acinetobacter baumannii, A. baumannii HAV#652 Clinical): 0.5 µg/mL (≈ 1.13 µM)
MIC ([14]; Acinetobacter baumannii, A. baumannii HAV#653, Clinical): 0.125 µg/mL (≈ 0.281 µM)
MIC ([14]; Acinetobacter baumannii, A. baumannii HAV#654, Clinical): < 0.06 µg/mL
MIC ([14]; Acinetobacter baumannii, A. baumannii HAV#655, Clinical): 0.5 µg/mL (≈ 1.13 µM)
MIC ([14]; Acinetobacter baumannii, A. baumannii HAV#656, Clinical): 32 µg/mL (≈ 72 µM)
MIC ([14]; Acinetobacter baumannii, A. baumannii HAV#657, Clinical): 0.5 µg/mL (≈ 1.13 µM)
MIC ([14]; Acinetobacter baumannii, A. baumannii HAV#658, Clinical): 0.06 µg/mL (≈ 0.135 µM)
MIC ([14]; Acinetobacter baumannii, A. baumannii HAV#659, Clinical): 0.5 µg/mL (≈ 1.13 µM)
MIC ([14]; Acinetobacter baumannii, A. baumannii HAV#660, Clinical): 1 µg/mL (≈ 2.25 µM)
MIC ([14]; Acinetobacter baumannii, A. baumannii HAV#661, Clinical): 0.125 µg/mL (≈ 0.281 µM)
MIC ([14]; Acinetobacter baumannii, A. baumannii HAV#662, Clinical): 0.25 µg/mL (≈ 0.563 µM)
MIC ([14]; Acinetobacter baumannii, A. baumannii HAV#663, Clinical): 0.125 µg/mL (≈ 0.281 µM)
MIC ([14]; Acinetobacter baumannii, A. baumannii HAV#664, Carbapenem R): 2 µg/mL (≈ 4.5 µM)
MIC ([14]; Enterococcus faecalis, E. faecalis HAV#602, Clincal): 0.25 µg/mL (≈ 0.563 µM)
MIC ([14]; Enterococcus faecalis, E. faecalis HAV#607, Clinical): 1 µg/mL (≈ 2.25 µM)
MIC ([14]; Enterococcus faecalis, E. faecalis HAV#608, Clinical): 0.5 µg/mL (≈ 1.13 µM)
MIC ([14]; Enterococcus faecalis, E. faecalis HAV#609, Clinical): 8 µg/mL (≈ 18 µM)
MIC ([14]; Enterococcus faecalis, E. faecalis HAV#610, Clinical): 0.5 µg/mL (≈ 1.13 µM)
MIC ([14]; Enterococcus faecalis, S. faecalis 5074, Line R): 64 µg/mL (≈ 144 µM)
MIC ([14]; Enterococcus faecalis, VRE, E. faecalis HAV#251, Clinical VRE): 0.125 µg/mL (≈ 0.281 µM)
MIC ([14]; Enterococcus faecalis, VRE, E. faecalis HAV#606, Clinical): 16 µg/mL (≈ 36 µM)
MIC ([14]; Enterococcus faecium, E. faecium HAV#317, Clinical): 0.25 µg/mL (≈ 0.563 µM)
MIC ([14]; Enterococcus faecium, E. faecium HAV#324, Clinical): 0.25 µg/mL (≈ 0.563 µM)
MIC ([14]; Enterococcus faecium, E. faecium HAV#327, Clinical): 0.25 µg/mL (≈ 0.563 µM)
MIC ([14]; Enterococcus faecium, E. faecium HAV#328, Clinical): 0.25 µg/mL (≈ 0.563 µM)
MIC ([14]; Enterococcus faecium, E. faecium HAV#329, Clinical): 0.25 µg/mL (≈ 0.563 µM)
MIC ([14]; Enterococcus faecium, VRE, E. faecium HAV#318, VanA): 4 µg/mL (≈ 9 µM)
MIC ([14]; Enterococcus faecium, VRE, E. faecium HAV#319, Line R & Vanco R): 16 µg/mL (≈ 36 µM)
MIC ([14]; Enterococcus faecium, VRE, E. faecium HAV#320, Clinical): > 128 µg/mL
MIC ([14]; Escherichia coli, E. coli HAV#503, Clinical): 32 µg/mL (≈ 72 µM)
MIC ([14]; Escherichia coli, E. coli HAV#511, Clinical): 2 µg/mL (≈ 4.5 µM)
MIC ([14]; Escherichia coli, E. coli HAV#512, Clinical): 2 µg/mL (≈ 4.5 µM)
MIC ([14]; Escherichia coli, E. coli HAV#513, Clinical): 32 µg/mL (≈ 72 µM)
MIC ([14]; Escherichia coli, E. coli HAV#514, Clinical): 2 µg/mL (≈ 4.5 µM)
MIC ([14]; Escherichia coli, E. coli HAV#516, ESBL-producing): 8 µg/mL (≈ 18 µM)
MIC ([14]; Haemophilus influenzae, ATCC9007, H. influenzae HAV#376, ATCC-9007): 0.25 µg/mL (≈ 0.563 µM)
MIC ([14]; Klebsiella pneumoniae, K. pneumoniae HAV#404, Clinical): 4 µg/mL (≈ 9 µM)
MIC ([14]; Klebsiella pneumoniae, K. pneumoniae HAV#405, Clinical): 2 µg/mL (≈ 4.5 µM)
MIC ([14]; Klebsiella pneumoniae, K. pneumoniae HAV#406, Clinical): 2 µg/mL (≈ 4.5 µM)
MIC ([14]; Klebsiella pneumoniae, K. pneumoniae HAV#407, Clinical): 32 µg/mL (≈ 72 µM)
MIC ([14]; Klebsiella pneumoniae, K. pneumoniae HAV#408, Clinical): 32 µg/mL (≈ 72 µM)
MIC ([14]; Klebsiella pneumoniae, K. pneumoniae HAV#409, ESBL-producing): 16 µg/mL (≈ 36 µM)
MIC ([14]; Staphylococcus aureus, MRSA, S. aureus HAV#0107, MRSA Col(Colindale, England)): 64 µg/mL (≈ 144 µM)
MIC ([14]; Staphylococcus aureus, MRSA, S. aureus HAV#218, Line R): 16 µg/mL (≈ 36 µM)
MIC ([14]; Staphylococcus aureus, MRSA, S. aureus HAV#220, Line R): 8 µg/mL (≈ 18 µM)
MIC ([14]; Staphylococcus aureus, MSSA, S. aureus HAV#219, Line R): 1 µg/mL (≈ 2.25 µM)
MIC ([14]; Staphylococcus aureus, S. aureus HAV#051, mecA, norA, spcl, ermA, aad1, aac6′-aph2″): 0.5 µg/mL (≈ 1.13 µM)
MIC ([14]; Staphylococcus aureus, S. aureus HAV#052, mecA, norA, fosB, blaZ): 0.5 µg/mL (≈ 1.13 µM)
MIC ([14]; Staphylococcus aureus, S. aureus HAV#053 mecA, norA, fosB): 0.5 µg/mL (≈ 1.13 µM)
MIC ([14]; Staphylococcus aureus, S. aureus HAV#054, mecA, norA, spcl, aad1, fosB, ermA, aac6′-aph2″, blaZ): 2 µg/mL (≈ 4.5 µM)
MIC ([14]; Staphylococcus aureus, S. aureus HAV#211, Clinical): 4 µg/mL (≈ 9 µM)
MIC ([14]; Staphylococcus aureus, S. aureus HAV#212, Clinical): 0.25 µg/mL (≈ 0.563 µM)
MIC ([14]; Staphylococcus aureus, S. aureus HAV#213, Clinical): 0.125 µg/mL (≈ 0.281 µM)
MIC ([14]; Staphylococcus aureus, S. aureus HAV#214, Clinical): 0.25 µg/mL (≈ 0.563 µM)
MIC ([14]; Staphylococcus aureus, S. aureus HAV#215, Clinical): 0.25 µg/mL (≈ 0.563 µM)
MIC ([14]; Staphylococcus aureus, S. aureus HAV#216, Clinical, cfr): 0.25 µg/mL (≈ 0.563 µM)
MIC ([14]; Staphylococcus aureus, S. aureus HAV#217, cfr): 4 µg/mL (≈ 9 µM)
MIC ([14]; Staphylococcus aureus, VISA, S. aureus HAV#203, Clinical (VISA)): 8 µg/mL (≈ 18 µM)
MIC ([14]; Staphylococcus epidermidis, S. epidermidis HAV# 275 Clinical, cfr): 1 µg/mL (≈ 2.25 µM)
MIC ([14]; Staphylococcus epidermidis, S. epidermidis HAV# 276, cfr): 2 µg/mL (≈ 4.5 µM)
MIC ([14]; Staphylococcus epidermidis, S. epidermidis HAV#277, Line R): 8 µg/mL (≈ 18 µM)
MIC ([14]; Staphylococcus epidermidis, S. epidermidis HAV#278 Line R): 4 µg/mL (≈ 9 µM)
MIC ([14]; Staphylococcus epidermidis, S. epidermidis HAV#279, Line R): 32 µg/mL (≈ 72 µM)
MIC ([14]; Staphylococcus haemolyticus, S. haemolyticus 5052, Line R & Methicillin R): 4 µg/mL (≈ 9 µM)
MIC ([14]; Streptococcus pneumoniae, ATCC700673, S. pneumoniae HAV#352, ATCC 700673, MDR): 4 µg/mL (≈ 9 µM)
MIC ([14]; Streptococcus pneumoniae, ATCCBAA255, S. pneumoniae HAV#354, ATCC-BAA-255): 0.25 µg/mL (≈ 0.563 µM)
MIC ([14]; Streptococcus pneumoniae, ATCCBAA334, S. pneumoniae HAV#353, ATCC-BAA-334): 0.25 µg/mL (≈ 0.563 µM)
MIC ([14]; Streptococcus pneumoniae, S. pneumoniae HAV#356, Clinical): 2 µg/mL (≈ 4.5 µM)
MIC ([14]; Streptococcus pneumoniae, S. pneumoniae HAV#358, Clinical): 0.25 µg/mL (≈ 0.563 µM)
MIC [15]: 8 µg/mL (≈ 18 µM)
